Where a name gives a salt, the structure may show the parent alone.
Key:
DBA2 audiogenic seizure = DBA2 audiogenic seizure model
[1] = system: carrageenan induced hyperalgesia; assay: carrageenan induced hyperalgesia assay (Pain Model)
[2] = 30 mg/kg orally in the rat, at 1 hour
[3] = 30 mg/kg orally in the rat, at 2 hours

SMILES | 1 Hour (second column pair, group head not given) (DBA2 audiogenic seizure) | 2 Hours (second column pair, group head not given) (DBA2 audiogenic seizure) | Pain Model % MPE 1 Hour [1] | Pain Model % MPE 2 Hours [1] | further results
Cl.NCC1(Cc2nnn[nH]2)CCCCC1 [C-[1-(1H-Tetrazol-5-ylmethyl)-cyclohexyl)-methylamine hydrochloride] | 60 | 100 |  |  | protection (DBA2 audiogenic seizure; 10 mg/kg oral dosing, 1 hour postdose): 60%; protection (DBA2 audiogenic seizure; 10 mg/kg oral dosing, 2 hours postdose): 100%; protection (DBA2 audiogenic seizure; 10 mg/kg oral dosing, 4 hours postdose): 100%; protection (DBA2 audiogenic seizure; 10 mg/kg oral dosing, 6 hours postdose): 80%
Cl.NCC1(Cc2noc(=O)[nH]2)CCCCC1 | 20 | 40 | 80.6 % MPE | 76.1 % MPE | duration of antihyperalgesic effect compared with gabapentin ([1]; 30 mg/kg orally in the rat): antihyperalgesic effect of longer duration than gabapentin; increase of paw withdrawal latency [1, 2]: 80.6%; increase of paw withdrawal latency [1, 3]: 76%; activity in the carrageenan induced hyperalgesia assay ([1]; result in words): active
CS(=O)(=O)NCCC1(CN)CCCCC1 [N-[2-1-Aminomethyl-cyclohexyl)-ethyl]-methanesulfonamide hydrochloride] |  | 0 | 0.3 % MPE | −0.9 % MPE | 
CS(=O)(=O)NCCC1(CN)CCCCC1 (as salt: hydrochloride) [N-[2-1-Aminomethyl-cyclohexyl)-ethyl]-methanesulfonamide hydrochloride] |  |  |  |  | melting point: 196 to 199 °C
Cl.NCC1(Cc2noc(=S)[nH]2)CCCCC1 [3-(1-Aminomethyl-cyclohexylmethyl)-4H-[1,2,4]oxadiazole-5-thione; hydrochloride] | 0 | 0 |  |  | melting point: 210 to 212 °C
NCC1(CC(=O)O)CCCCC1 [Gabapentin, 1-(aminomethyl)-cyclohexaneacetic acid, reference compound] | 100 | 100 | 49.9 % MPE | 19.9 % MPE | increase of paw withdrawal latency [1, 2]: 49.9%; increase of paw withdrawal latency [1, 3]: 19.9%; response in the DBA2 audiogenic seizure model (DBA2 audiogenic seizure; 10 mg/kg orally, result in words): no significant response; protection (DBA2 audiogenic seizure; 30 mg/kg, 2 hours postdose): 100%
CC(C)(C)C(=O)NCCC1(CN)CCCCC1 [N-[2-(1-Aminomethyl-cyclohexyl)-ethyl]-t-butylamide] |  | 0 | 1.6 % MPE | −4.8 % MPE | 
